Results on three compounds are retold here after patent publication US20230302031A1, “Modulators Of Purinergic Receptors and Related Immune Checkpoint For Treating Acute Respiratory Distress Syndrome” (priority 2020, published 2023).

The test system of assay [1] is MDMs. Nature of the assay: Microarray of human macrophage polarization-specific markers in MDMs. In kind it is cell-based. The conditions noted are these: 100 μM, 72 hours, FIG. 6Q. On the procedure: MDMS were treated with 100 μM Kaempferol during 72 hours. Then, mRNAs were isolated using RNeasy kit (#74104, Quiagen) and gene expression analyses were performed with Agilent® SurePrint G3 Human GE 8x60K Microarray (Agilent Technologies, AMADID 39494) with the following single-color design. RNAs were labeled with Cy3 using the one-color Agilent labeling kit (Low Input Quick Amp Labeling Kit 5190-2306) adapted for small amount of total RNA (100 ng total RNA per reaction). Hybridization were then performed on microarray using 800 ng of linearly amplified cRNA labeled, following the manufacturer protocol (Agilent SureHyb Chamber; 800 ng of labeled extract; duration of hybridization of 17 hours; 40 μL per array; Temperature of 65° C.). […] Microarray images were analyzed by means of Feature Extraction software version (10.7.3.1) from Agitent technologies. […]
Raw data files from Feature Extraction were imported into R with LIMMA (Smyth, 2004, Statistical applications in Genetics and molecular biology, vol 3, N°1, article 3), an R package from the Bioconductor project, and processed as follow: gMedianSignal data were imported, controls probes were systematically removed, and flagged probes (gisSaturated, glsFeatpopnOL, glsFeatNonUnifOL) were set to NA. […] Normalized data were then analyzed. […]

Assay [2] deals with MDMs. The format is cell-based, human. Conditions: FIG. 6L, 6M.
Assay [3] deals with human monocyte derived macrophages (MDMs). As to the kind of experiment: IL-1β release from monocyte derived macrophages (MDMs). The format is cell-based. The conditions noted are these: 100 μM, FIG. 6G.
In assay [4] the test system is MDMs. As to the kind of experiment: IL-10 secretion by MDMs. The format is cell-based, human. Conditions: 100 μM, FIG. 6K.
Assay [5] concerns MDMs. As to the kind of experiment: IRF5 expression in MDMs (western blot). In kind it is cell-based, human. Conditions: FIG. 6N.
Assay [6] concerns PMA-treated THP1 macrophages. As to the kind of experiment: IL-1β release from LPS+ATP-stimulated PMA-THP1 macrophages (western blot/ELISA). The format is cell-based, human. The conditions noted are these: 100 μM compound; 10 ng/mL LPS 3 hours + 5 mM ATP 6 hours; FIG. 6E, 6I. Here is the method:
Human THP-1 cells were cultured in RPMI 1640 media, supplemented with 10% FBS and differentiated by treatment for 3 hours with 100 nM phorbol-12-myristate-13-acetate (PMA, Invivogen). After 2 days, macrophage THP-1 cells were stimulated first 3 hours with ultrapure LPS from E. coli (10 ng/ml, LPS) and then stimulated for 6 hours with ATP (5 mM, Sigma) or treated with 50 ng or 20 ng of IFNg during 24 or 12 hours as indicated. Then, supernatants and cells were collected for western blot analysis.
Cells or supernatant were lysed in appropriated buffer (250 mM NaCl, 0.1% NP-40, 5 mM EDTA, 10 mM Na3VO4, 10 mM NaF, 5 mM DTT, 3 mM Na4P2O7, 1 mM EGTA, 10 mM Glycerol phosphate, 10 mM Tris-Hcl (pH=7.5) and the protease and phosphatase inhibitors (Roche)). Equal amount of supernatant or 10-40 μg of protein extracts were run on 4-12% or 10% SDS-PAGE and transferred at 4° C. onto a nitrocellulose membrane (0.2 Micron). After incubation for 2 hours at room temperature with 5% nonfat milk or BSA (Bovine Serum Albumine) in Tris-buffered saline and 0.1% Tween 20 (TBS-Tween), membranes were incubated with primary antibody at 4° C. overnight. […] The primary antibodies against. […] Western blots shown are representative of at least of three independent experiments.
(§1) Plasma serum from P2y2^+/+ and P2y2^−/− mice and supernatants harvested from PMA-stimulated THP1 macrophages that were depleted or not for P2Y2 or NLRP3, and/or stimulated with 10 ng/mL LPS during 3 hours and 5 mM ATP during 6 hours or with 20 ng/mL IFNγ, in presence or in absence of 100 μM Suramin, 100 μM OxATP, 100 μM Kaempferol or 100 μM Diquafosol at indicated times were analyzed using western blot or ELISA for IL-1β (Ebioscience) and IL-10 (BD) according to the manufacturers' instructions.
In general terms: A western blot detects proteins with antibodies after separation by electrophoresis.

The test system of assay [7] is PMA-treated THP1 macrophages. Nature of the assay: IL-10 secretion by PMA-treated THP1 macrophages. The format is cell-based, human. Conditions: 100 μM, FIG. 6J. Here is the method: as §1
Assay [8] relates to PMA-differentiated THP1 macrophages. Nature of the assay: LDH release from PMA-differentiated THP1 macrophages. The format is cell-based, human. Conditions: treated or not with LPS and ATP; FIG. 5H. (In general: LDH leaks from cells whose membrane has failed.)
The test system of assay [9] is SARS-CoV-2. The conditions noted are these: reference 50; cited from earlier work.
The test system of assay [10] is COVID-19 patients with severe inflammatory failure. The conditions noted are these: early administration; retrospective study, reference 51; cited from earlier work.

As to `O=c1c(O)c(-c2ccc(O)cc2)oc2cc(O)cc(O)c12` [Kaempferol], the “known human markers of macrophage activation induced” value in assay [1] is reported as 90%. Besides, the “membrane expression of CD163” value in [2] is “diminished membrane expression of anti-inflammatory macrophage activation marker CD163”. Besides, the IL-1β release result in assay [3] and in [6] was “increased IL-1β release” throughout. Further, the “secretion of IL-10” value in assay [4] and in assay [7] was “reduced secretion of the immunosuppressive cytokine interleukin-10 (IL-10)” in each case. The “expression of IRF5” value in assay [5] is reported as “increased expression of the pro-inflammatory transcription factor IFN regulatory factor 5 (IRF5)”. Besides, the “LDH release (cell death marker)” value in [8] is “released the cell death marker, lactate dehydrogenase (LDH)”.

Ivermectin: in assay [9], the “replication of SARS-CoV-2 in vitro” value is recorded as “inhibit the replication of SARS-CoV-2 in vitro”.

With anakinra: IL-1 receptor antagonist, in assay [10], the “prognosis of COVID-19 patients” value was “significantly improved prognosis of COVID-19 patients with severe inflammatory failure”.
